The record followed here is patent US20100221758A1, “Sensors for Measuring Contaminants” (ECI Biotech Inc., priority 2007, published 2010).

Entries after “also recorded” stand apart in the source; their conditions may differ. Starred links: 1 amine or outer side, 2 acyl side, 3 side chain; linkers in the order of their positions; H or OH if unused. Residues, ends and D or L forms follow the SMILES beside them. *: point of attachment. Glutaryl = O=C(CCCC(=O)[*:2])[*:1]; AMC = Cc1cc(=O)oc2cc(N*)ccc12

The test system of experiment [1] is thioredoxin reductase (trxB). In words: Thioredoxin reductase (trxB) detection assay. It counts as biochemical, Mycoplasma hyorhinis. The procedure: Other fluorescent probes such as BODIPY®FL L-cystine and the 2′,7′-difluoro-4′-(2-(5-((dimethyl amino phenyl)azo)pyridyl)dithiopropionyl aminomethyl)fluorescein (abbreviated as DFDMAP-fluorescein) were studied to improve the sensitivity and the signal-to-noise ratio of the assay. Assays were performed with 40 mM Tris pH 7.2, 100 mM NaCl±detergent.
A detergent lysis buffer procedure that would hydrolyze the simple Mycoplasma cell membranes but not lyse the tissue culture cells was needed. Methyl-6-O—(N-heptylcarbamoyl)-α-D-glucopyranoside (HECAMEG) is a preferred detergent.
An alternative substrate to produce the thioredoxin reductase signal was to measure the release of horseradish peroxidase (HRP) from a chromatography bead tethered with the heterobifunctional crosslinking reagent 3,3′-dithiobis[sulfosuccinimidylpropionate] (DTSSP).

For experiment [2], the system named is reductases produced by the bacteria. In words: Dye decolorization by bacterial culture supernatants. The class given is biochemical. To be noted: bacterial culture supernatant, about 18 hours incubation. The procedure: Each well was incubated with 10 μg of reactive black 5 plus 190 μl of culture supernatant from the following bacterium: E. coli, E. faecalis, S. aureus, P. aeruginosa, S. pyogenes, and S. marcescens. […] The decolorization is indicative of reductases produced by the bacteria.
Reductase activity can be measured through a Azo dye that gets decolorized by the release of reductases from many bacterial cells. […] A sensor placed on the bottom of a culture dish, buffer container or even on a swab for measuring the presence of mycoplasma in human fluids can be used to ascertain bacterial contamination or infection. The benefit of a simple azo dye sensor is low cost although it may not specifically detect different bacteria. […] Each well was incubated with 10 μg of reactive black 5 plus 190 μl of filtered culture supernatant from the following bacterium: E. coli, E. faecalis, S. aureus, P. aeruginosa, S. pyogenes, and S. marcescens. […] The decolorization is indicative of reductases produced by the bacteria.

The test system of another experiment is E. coli. In words: Thioredoxin reductase cross-reactivity with DTNB substrate. It counts as biochemical. To be noted: up to 10^6 CFU/ml E. coli. The source says:
(§1) Since thioredoxin reductases are widely distributed in eukaryotes and prokaryotic cells, there is a possibility that thioredoxin reductases from other microbes may cross-react with this assay to give a false positive result. […] This high NTS activity is presumed to be useful for Mycoplasma for the detoxification of reactive oxygen compounds, since the Mollicutes have simple genomes that lack the genes encoding enzymes such as catalase, peroxidase and […] that function to remove H2O2 and other oxygen radicals in other bacteria (Gibson, D. G., et al., Complete chemical synthesis, assembly, and cloning of a Mycoplasma genitalium genome. Science. 319(5867):1215-1220 (2008)).

The test system of another experiment is S. aureus. Described as above. To be noted: up to 10^6 CFU/ml S. aureus. The class given is biochemical.
Description: as §1

Experiment [3] relates to M. hyorhinis. In words: Effect of divalent cations on Vmax, MCA-Leu substrate. The class given is biochemical, Mycoplasma hyorhinis. Set-up: unit not given here. The following applies: 1 mM additive in place of 1 mM MgCl2. On the procedure:
(§2) A presently preferred substrate is leu-MCA that had significant activity above the uninfected media control under the gentle conditions used to lyse the Mycoplasma (0.05% HECAMEG, 1 mM MgCl2, 100 mM NaCl, 40 mM Tris buffer, pH 8.5). The MCA-Leu substrate produces a signal level of 500 mOD in 30 minutes with M. hyorhinis, while M. hyorhinis has weak activity for arg-MCA.
Detergent lysis of M. hyorhinis with HECAMEG gives better signal than sonication. Manganese or magnesium also improves the signal to noise ratio.

A further experiment deals with Mycoplasma cells. In words: Detergent lysis buffer procedure for trxB assay. It counts as cell-based. The procedure: A detergent lysis buffer procedure that would hydrolyze the simple Mycoplasma cell membranes but not lyse the tissue culture cells was needed. Methyl-6-O—(N-heptylcarbamoyl)-α-D-glucopyranoside (HECAMEG) is a preferred detergent. […] As expected, 0.1 mM NADPH enhanced the activity of trxB (FIG. 12). As a substrate for trxB, Bodipy® FL L-cystine provided a signal that was 7500 times that of the buffer control, however this signal was an artifact of the digitonin.

Experiment [4] has as its system lon ATP-dependent protease. In words: Assays for proteolytic activity, fluorogenic MCA substrate (Table 5). Set-up: unit not given beside the values. The class given is biochemical, Mycoplasma hyorhinis. An excerpt: (§3) Further studies examined the suitability of the […] for use in a diagnostic test. These studies used several fluorogenic substrates consisting of small chain amino acids coupled to a methoxy coumarin fluorescent probe (MCA, (7-methoxycoumarin-4-yl)acetyl). The test conditions were “buffer,” phosphate-buffered saline (PBS), “uninfected medium,” medium from cell cultures not infected with Mycoplasma, “infected medium,” medium from cell cultures infected with Mycoplasma, and a Mycoplasma positive control derived from a Mycoplasma culture. In each case the uninfected media control had substantial background proteolytic activity, with pepA being the most candidate with a signal-to-noise ratio (S/N) of about 2, where S/N=(Vmax infected medium)/(Vmax uninfected medium).

Experiment [5] concerns M. hyorhinis. In words: Vmax measured using MCA labeled substrates with gentle HECAMEG lysis. It counts as biochemical, Mycoplasma hyorhinis. Set-up: Vmax: unit not given here. On the procedure: as §2
Experiment [6] deals with pepA Leucine aminopeptidase. In words: Assays for proteolytic activity, fluorogenic MCA substrate (Table 5). The class given is biochemical, Mycoplasma hyorhinis.
Description: as §3

The subject of experiment [7] is map Methionine aminopeptidase. Described as above. It counts as biochemical, Mycoplasma hyorhinis. Set-up: unit not given beside the values.
Description: as §3

As for `Cc1cc(C)n2c1C=C1C=CC(CCC(=O)N[C@@H](CSSC[C@H](NC(=O)CCC3=[N+]4C(=Cc5c(C)cc(C)n5[B-]4(F)F)C=C3)C(=O)O)C(=O)O)=[N+]1[B-]2(F)F` [Bodipy® FL L-cystine, BODIPY®FL L-cystine], in experiment [1] (signal was an artifact of the digitonin), the “signal relative to buffer control” value turned out to be 7500 times.
For the compound `CN(C)c1ccc(N=Nc2ccc(C(=O)O)cc2)cc1` [DABCYL, 4-((4-(dimethylamino)phenyl)azo)benzoic acid], in [2], the decolorization entry was “completely decolorized”.
As for `CN(C)c1ccc(N=Nc2ccc(SSCCC(=O)NCc3c(O)c(F)cc4c(-c5ccccc5C(=O)O)c5cc(F)c(=O)cc-5oc34)nc2)cc1` [DFDMAP fluorescein, 2′,7′-difluoro-4′-(2-(5-((dimethylaminophenyl)azo)pyridyl)dithiopropionylaminomethyl)fluorescein], in experiment [1] (at 10^7-10^8 CFU/ml), the detection level was 10,000-20,000 RFU.
For the compound `O=C(O)c1cc(SSc2ccc([N+](=O)[O-])c(C(=O)O)c2)ccc1[N+](=O)[O-]` [DTNB, 5,5′-Dithio-bis-(2-nitrobenzoic acid)], the “hydrolysis / thioredoxin reductase activity” value in the experiment with E. coli and with S. aureus was “no significant activity; also recorded: no appreciable hydrolysis” throughout.
For the compound `O=C(O)CN(CCN(CC(=O)O)CC(=O)O)CC(=O)O` [EDTA], the “Vmax, MCA-Leu Substrate” value was found to be 0 in the experiment with M. hyorhinis [3] (Buffer), 45241 in the experiment on M. hyorhinis [3] (Infected), 1710 in the experiment on M. hyorhinis [3] (Medium) and 3873 in the experiment with M. hyorhinis [3] (Uninfected).
Consider `CCCCCCCNC(=O)OC[C@H]1O[C@H](OC)[C@H](O)[C@@H](O)[C@@H]1O` [HECAMEG, Methyl-6-O—(N-heptylcarbamoyl)-α-D-glucopyranoside], for which, in the experiment on Mycoplasma cells, the “concentration sufficient to lyse Mycoplasma cells while not disrupting the membranes of the cultured cells” value is listed as 0.5%.
For `O=S(=O)([O-])[O-].[Mg+2]` [MgSO4], the figures for the “Vmax, MCA-Leu Substrate” value in the experiment with M. hyorhinis [3] (Buffer), in the experiment with M. hyorhinis [3] (Infected) and with M. hyorhinis [3] (Uninfected) were 483, 90365 and 5125, respectively.
With `[Cl][Mn][Cl]` [MnCl2], the “Vmax, MCA-Leu Substrate” value in the experiment on M. hyorhinis [3] (Medium) worked out at 1703.
Take `CCN(Cc1cccc(S(=O)(=O)[O-])c1)c1ccc(C(=C2C=CC(=[N+](CC)Cc3cccc(S(=O)(=O)[O-])c3)C=C2)c2ccccc2S(=O)(=O)[O-])cc1.[Na+].[Na+]` [blue dye number 1]: the decolorization result in experiment [2] is reported as “not decolorized”.
On to `Cc1cc(=O)oc2cc(NC(=O)[C@H](Cc3ccccc3)NC(=O)[C@H](C)NC(=O)[C@H](C)NC(=O)CCCC(=O)O)ccc12` [glt-ala-ala-phe-MCA] (Glutaryl-Ala-Ala-Phe-{AMC}), for which the Vmax in experiment [4] (Buffer (PBS)) was 55.8; in [4] (Infected medium), 1802; in [4] (Mycoplasma positive control), 3354; in [4] (Uninfected medium), 1460.
Take `Nc1c(N=Nc2ccc(S(=O)(=O)CCOS(=O)(=O)[O-])cc2)c(S(=O)(=O)[O-])cc2cc(S(=O)(=O)[O-])c(N=Nc3ccc(S(=O)(=O)CCOS(=O)(=O)[O-])cc3)c(O)c12.[Na+].[Na+].[Na+].[Na+]` [reactive black 5]: in experiment [2], the decolorization entry is “completely decolorized”.
“arginine-(7-methoxycoumarin-4-yl)acetyl [arg-MCA]”: the “activity of M. hyorhinis for substrate” value in the experiment with M. hyorhinis [5] (0.05% HECAMEG, 1 mM MgCl2, 100 mM NaCl, 40 mM Tris buffer, pH 8.5) is “weak activity”. The Vmax came out at 0 with M. hyorhinis [5] (Buffer), 60903 in the experiment on M. hyorhinis [5] (Infected medium), 676 with M. hyorhinis [5] (Medium) and 29034 with M. hyorhinis [5] (Uninfected medium).
In the case of “leucine-(7-methoxycoumarin-4-yl)acetyl [leu-MCA]”, the Vmax in experiment [6] (Buffer (PBS)) is on record as 2874; in experiment [6] (Infected medium), 906; in experiment [6] (Mycoplasma positive control), 522; in [6] (Uninfected medium) it was 454; in the experiment on M. hyorhinis [5] (Buffer) it was 236; in the experiment on M. hyorhinis [5] (Infected medium), 415190. Besides, the Vmax is given as 2118 in the experiment on M. hyorhinis [5] (Medium) and 17422 with M. hyorhinis [5] (Uninfected medium). Moreover, the signal level with M. hyorhinis [5] (in 30 minutes with M. hyorhinis) is recorded as 500 mOD.
On to “methionine-(7-methoxycoumarin-4-yl)acetyl [met-MCA]”, for which the Vmax in experiment [7] (Buffer (PBS)) was 19.4; in experiment [7] (Infected medium) it was 627; in experiment [7] (Mycoplasma positive control), 733; in experiment [7] (Uninfected medium), 430; with M. hyorhinis [5] (Buffer), 125; in the experiment on M. hyorhinis [5] (Infected medium), 302082. In addition, the Vmax is 1731 in the experiment on M. hyorhinis [5] (Medium) and 19004 with M. hyorhinis [5] (Uninfected medium).
